Assays:
c-Cbl = c-Cbl (Homo sapiens (Human), UniProt P22681); assay: C-Cbl LCK Ub TR-FRET assay (C-cbl Lck HTRF); type: biochemical
Summary of the method: (§1)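 Signal is read once the detection mix has stood 20 min at ambient temperature. Curves are anchored by DMSO as maximum and by omission of LCK as minimum.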

[1] = biological target: Human Cbl-b (residues 40-426) (Homo sapiens (Human), UniProt Q13191); assay: Cbl-b SPR assay; type: binding; settings: for Fold of selectivity: C-cbl SPR Kd vs Cbl-b SPR Kd; for Kd: SPR, 20° C.
Protocol: (§2) Affinity of binding to Cbl-b and c-Cbl for compounds described herein was assessed by surface plasmon resonance (SPR) according to the following protocol.
(§3) A surface capture range of 1300-1500 RU of protein was used for both isoforms.
(§4) For SPR measurements, 6 concentrations with 2 fold serial dilution were measured with blanks flanking each series for double referencing. […] SPR sensorgrams were recorded in multi-cycle kinetics format, with a contact time of 60 seconds and a flow rate of 40 μl/min, the dissociation time was varied between 120-1200 seconds aiming for 4-5 half-lives of the measured interaction.
(§5) Kinetic and affinity parameters were extracted from the multicycle kinetics data fitting to a 1:1 binding model using the Biacore™ Incyte evaluation software (Cytiva).
(§6) Chaser assay utilize a single cycle kinetics SPR experiment with a contact time of 120 seconds, a flow rate of 50 μl/min and a dissociation time of 450 seconds. Single cycle kinetics titration utilized an initial blank injection and 5 concentrations with 2 fold serial dilution with a maximum concentration of 500 nM, blanked to a preceding 6 point blank single cycle kinetics injection for double referencing.
(§7) The kd is measured independently by determining the percentage unoccupied compound binding site over time by measuring the binding of a chaser compound measured by SPR.
(§8) Chaser binding was measured by a multicycle kinetics SPR experiment using a contact time of 20 seconds, a flow rate of 30 μl/min, and a dissociation time of 120 seconds. […] The % compound bound at a given time was determined by comparison to a single injection of chaser preceding the single cycle kinetics titration defined below. % Compound Bound=(1−(RUT/RUT0))*100
(§9) The % compound bound is plotted against time in seconds and fit to a single exponential, where the exponent represents the kd of the compound-protein complex. The single cycle kinetics experiment of the compound is then fit with a fixed kd determined using the chaser.

c-Cbl (residues 47-435) = c-Cbl (residues 47-435) (Homo sapiens (Human), UniProt P22681); assay: c-Cbl SPR assay; type: binding; settings: 20° C.
Protocol: as §2, §3, §4, §5, §6, §7, §8, §9

Cbl-b = Cbl-b (Homo sapiens (Human), UniProt Q13191); assay: Cbl-b LCK Ub TR-FRET assay (Cbl-b Lck HTRF); type: biochemical; settings: for IC50: Cbl-b LCK Ub TR-FRET; for fold-selectivity (Cbl-b over C-cbl): ratio C-cbl Lck HTRF IC50 / Cbl-b Lck HTRF IC50
Summary of the method: as §1

Chain of c-Cbl (P22681 47-435): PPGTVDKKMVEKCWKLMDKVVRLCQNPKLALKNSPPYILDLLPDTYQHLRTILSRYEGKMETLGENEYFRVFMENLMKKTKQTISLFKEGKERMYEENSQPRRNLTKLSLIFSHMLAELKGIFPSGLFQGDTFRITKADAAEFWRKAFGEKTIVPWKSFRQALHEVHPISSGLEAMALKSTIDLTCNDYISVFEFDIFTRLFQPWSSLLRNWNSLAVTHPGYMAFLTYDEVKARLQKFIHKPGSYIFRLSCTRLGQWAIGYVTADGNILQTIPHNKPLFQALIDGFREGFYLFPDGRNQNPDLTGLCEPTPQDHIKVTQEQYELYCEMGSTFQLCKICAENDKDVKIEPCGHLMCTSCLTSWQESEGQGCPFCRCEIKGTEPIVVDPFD
Chain of c-Cbl (residues 47-435) (P22681 47-435): as above
Chain of Human Cbl-b (residues 40-426) (Q13191 40-426): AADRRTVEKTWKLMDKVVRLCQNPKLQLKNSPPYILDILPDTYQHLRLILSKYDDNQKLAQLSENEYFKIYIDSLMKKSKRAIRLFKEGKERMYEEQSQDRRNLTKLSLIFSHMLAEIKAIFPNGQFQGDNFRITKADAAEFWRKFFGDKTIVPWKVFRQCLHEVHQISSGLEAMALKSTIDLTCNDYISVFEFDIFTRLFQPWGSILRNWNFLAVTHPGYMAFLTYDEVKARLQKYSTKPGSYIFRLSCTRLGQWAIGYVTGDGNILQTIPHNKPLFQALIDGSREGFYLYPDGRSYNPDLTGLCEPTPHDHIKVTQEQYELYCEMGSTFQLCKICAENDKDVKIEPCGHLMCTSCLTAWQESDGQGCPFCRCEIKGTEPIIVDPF
Chain of Cbl-b (Q13191 40-426): as above

CC(C)[C@H]1CN(C)CCN1Cc1cc2c(c(C(F)(F)F)c1)CN(c1cc([C@]3(c4nncn4C)C[C@H](C)C3)cc(OC3CCCC3)n1)C2=O (single isomer, unassigned) [Compound 73]
IC50 (c-Cbl): 35 nM | Fold of selectivity [1]: 3.0× | Kd [1]: 1 nM | Kd (c-Cbl (residues 47-435)): 3 nM | IC50 (Cbl-b): 22 nM | fold-selectivity (Cbl-b over C-cbl) (Cbl-b): (1.6x)

CC(C)[C@H]1CN(C)CCN1Cc1cc2c(c(C(F)(F)F)c1)CN(c1cc([C@]3(c4nncn4C)C[C@H](C)C3)cc(NC3CCCC3)n1)C2=O (single isomer, unassigned) [Compound 75]
IC50 (c-Cbl): 22 nM | Fold of selectivity [1]: 7.7× | Kd [1]: 31 nM | Kd (c-Cbl (residues 47-435)): 230 nM | IC50 (Cbl-b): 17 nM | fold-selectivity (Cbl-b over C-cbl) (Cbl-b): (1.3x)

Cn1cnnc1[C@]1(c2cccc(N3Cc4c(cc(CNC5(C)CCC5)cc4C(F)(F)F)C3=O)c2)CCC(F)(F)C1 (single isomer, unassigned) [Compound 107]
IC50 (c-Cbl): 1800 nM | Fold of selectivity [1]: 6.8× | Kd [1]: 250 nM | Kd (c-Cbl (residues 47-435)): 1700 nM | IC50 (Cbl-b): 300 nM | fold-selectivity (Cbl-b over C-cbl) (Cbl-b): 6.0x

Cn1cnnc1[C@@H](c1cccc(N2Cc3c(cc(CNC4(C)CCC4)cc3C(F)(F)F)C2=O)c1)C1CC(=O)C1 (single isomer, unassigned) [Compound 114]
IC50 (c-Cbl): 770 nM | Fold of selectivity [1]: 2.1× | Kd [1]: 290 nM | Kd (c-Cbl (residues 47-435)): 610 nM | IC50 (Cbl-b): 360 nM | fold-selectivity (Cbl-b over C-cbl) (Cbl-b): 2.1 x

Cn1cnnc1[C@H](c1cccc(N2Cc3c(cc(CNC4(C)CCC4)cc3C(F)(F)F)C2=O)c1)C1CC(=O)C1 (single isomer, unassigned) [Compound 115]
IC50 (c-Cbl): 23 nM | Fold of selectivity [1]: 5.2× | Kd [1]: 1.8 nM | Kd (c-Cbl (residues 47-435)): 8.9 nM | IC50 (Cbl-b): 10 nM | fold-selectivity (Cbl-b over C-cbl) (Cbl-b): 2.3x

CO[C@](c1cccc(N2Cc3c(cc(CNC4(C)CCC4)cc3C(F)(F)F)C2=O)c1)(c1nncn1C)C1CCC1 (single isomer, unassigned) [Compound 119]
IC50 (c-Cbl): 13000 nM | Fold of selectivity [1]: 3.0× | Kd [1]: 780 nM | Kd (c-Cbl (residues 47-435)): 2300 nM | IC50 (Cbl-b): 3600 nM | fold-selectivity (Cbl-b over C-cbl) (Cbl-b): 3.6x

Cn1cnnc1[C@H](c1cccc(N2Cc3c(cc(CNC4(C)CCC4)cc3C(F)(F)F)C2=O)c1)C1CC(F)C1 (single isomer, unassigned) [Compound 127]
IC50 (c-Cbl): 2000 nM | Fold of selectivity [1]: 13× | Kd [1]: 360 nM | Kd (c-Cbl (residues 47-435)): 4800 nM | IC50 (Cbl-b): 410 nM | fold-selectivity (Cbl-b over C-cbl) (Cbl-b): 4.1x

Cn1cnnc1[C@H](c1cccc(N2Cc3c(cc(CNC4(C)CCC4)cc3C(F)(F)F)C2=O)c1)C1CC(F)C1 (single isomer, unassigned) [Compound 128]
IC50 (c-Cbl): 1300 nM | Fold of selectivity [1]: 13× | Kd [1]: 230 nM | Kd (c-Cbl (residues 47-435)): 3000 nM | IC50 (Cbl-b): 240 nM | fold-selectivity (Cbl-b over C-cbl) (Cbl-b): 4.9x

Cn1cnnc1[C@@H](c1cccc(N2Cc3c(cc(CNC4(C)CCC4)cc3C(F)(F)F)C2=O)c1)C1CC(F)C1 (single isomer, unassigned) [Compound 129]
IC50 (c-Cbl): 39 nM | Fold of selectivity [1]: 13× | Kd [1]: 3.6 nM | Kd (c-Cbl (residues 47-435)): 43 nM | IC50 (Cbl-b): 11 nM | fold-selectivity (Cbl-b over C-cbl) (Cbl-b): 3.5x

Cn1cnnc1[C@@H](c1cccc(N2Cc3c(cc(CNC4(C)CCC4)cc3C(F)(F)F)C2=O)c1)C1CC(F)C1 (single isomer, unassigned) [Compound 130]
IC50 (c-Cbl): 5.7 nM | Fold of selectivity [1]: 5.3× | Kd [1]: 0.3 nM | Kd (c-Cbl (residues 47-435)): 1.6 nM | IC50 (Cbl-b): 5.5 nM | fold-selectivity (Cbl-b over C-cbl) (Cbl-b): 1.0x

COC1CC([C@H](c2cccc(N3Cc4c(cc(CNC5(C)CCC5)cc4C(F)(F)F)C3=O)c2)c2nncn2C)C1 (single isomer, unassigned) [Compound 131]
IC50 (c-Cbl): 5600 nM | Fold of selectivity [1]: 16× | Kd [1]: 280 nM | Kd (c-Cbl (residues 47-435)): 4500 nM | IC50 (Cbl-b): 740 nM | fold-selectivity (Cbl-b over C-cbl) (Cbl-b): 7.4x

COC1CC([C@H](c2cccc(N3Cc4c(cc(CNC5(C)CCC5)cc4C(F)(F)F)C3=O)c2)c2nncn2C)C1 (single isomer, unassigned) [Compound 132]
IC50 (c-Cbl): 4800 nM | Fold of selectivity [1]: 15× | Kd [1]: 360 nM | Kd (c-Cbl (residues 47-435)): 5600 nM | IC50 (Cbl-b): 600 nM | fold-selectivity (Cbl-b over C-cbl) (Cbl-b): 8.0x

COC1CC([C@@H](c2cccc(N3Cc4c(cc(CNC5(C)CCC5)cc4C(F)(F)F)C3=O)c2)c2nncn2C)C1 (single isomer, unassigned) [Compound 133]
IC50 (c-Cbl): 730 nM | Fold of selectivity [1]: 7.7× | Kd [1]: 83 nM | Kd (c-Cbl (residues 47-435)): 660 nM | IC50 (Cbl-b): 150 nM | fold-selectivity (Cbl-b over C-cbl) (Cbl-b): 4.9x

COC1CC([C@@H](c2cccc(N3Cc4c(cc(CNC5(C)CCC5)cc4C(F)(F)F)C3=O)c2)c2nncn2C)C1 (single isomer, unassigned) [Compound 134]
IC50 (c-Cbl): 17 nM | Fold of selectivity [1]: 6.6× | Kd [1]: 1.9 nM | Kd (c-Cbl (residues 47-435)): 13 nM | IC50 (Cbl-b): 9.8 nM | fold-selectivity (Cbl-b over C-cbl) (Cbl-b): 1.8x

Cc1cnnn1[C@@H](c1cccc(N2Cc3c(cc(CNC4(C)CCC4)cc3C(F)(F)F)C2=O)c1)C1COC1 (single isomer, unassigned) [Compound 135]
IC50 (c-Cbl): 69 nM | Fold of selectivity [1]: 4.9× | Kd [1]: 13 nM | Kd (c-Cbl (residues 47-435)): 63 nM | IC50 (Cbl-b): 37 nM | fold-selectivity (Cbl-b over C-cbl) (Cbl-b): 1.9x

Cn1cnnc1[C@@H](c1cccc(N2Cc3c(cc(CNC4(C)CCC4)cc3C(F)(F)F)C2=O)c1)[C@H]1C[C@H](C#N)C1 (single isomer, unassigned) [Compound 139]
IC50 (c-Cbl): 1300 nM | Fold of selectivity [1]: 4.6× | Kd [1]: 220 nM | Kd (c-Cbl (residues 47-435)): 1000 nM | IC50 (Cbl-b): 350 nM | fold-selectivity (Cbl-b over C-cbl) (Cbl-b): 3.6x

Cn1cnnc1[C@@H](c1cccc(N2Cc3c(cc(CNC4(C)CCC4)cc3C(F)(F)F)C2=O)c1)[C@H]1C[C@@H](C#N)C1 (single isomer, unassigned) [Compound 140]
IC50 (c-Cbl): 1500 nM | Fold of selectivity [1]: 0.88× | Kd [1]: 980 nM | Kd (c-Cbl (residues 47-435)): 850 nM | IC50 (Cbl-b): 830 nM | fold-selectivity (Cbl-b over C-cbl) (Cbl-b): 1.9x

Cn1cnnc1[C@H](c1cccc(N2Cc3c(cc(CNC4(C)CCC4)cc3C(F)(F)F)C2=O)c1)[C@H]1C[C@@H](C#N)C1 (single isomer, unassigned) [Compound 141]
IC50 (c-Cbl): 12 nM | Fold of selectivity [1]: 5.1× | Kd [1]: 1.9 nM | Kd (c-Cbl (residues 47-435)): 9.4 nM | IC50 (Cbl-b): 7.6 nM | fold-selectivity (Cbl-b over C-cbl) (Cbl-b): 1.6x

Cn1cnnc1[C@H](c1cccc(N2Cc3c(cc(CNC4(C)CCC4)cc3C(F)(F)F)C2=O)c1)[C@H]1C[C@H](C#N)C1 (single isomer, unassigned) [Compound 142]
IC50 (c-Cbl): 350 nM | Fold of selectivity [1]: 3.8× | Kd [1]: 370 nM | Kd (c-Cbl (residues 47-435)): 1300 nM | IC50 (Cbl-b): 200 nM | fold-selectivity (Cbl-b over C-cbl) (Cbl-b): 1.8x

— patent US12187709B2 (Genentech, Inc., priority 2021, dated 2025)
